Values of other authors, collected in patent publication US12419890B2, “Administration of sumo-activating enzyme inhibitor and checkpoint inhibitors” (Takeda Pharmaceutical Company Limited, priority 2019, dated 2025).
Where two headings read alike, the source gives them in different places.

What was measured:
metastatic CRC = settings: stated jointly for both drugs; cited from earlier work
[1] = tested on: recurrent or metastatic cervical cancer; settings: cited from earlier work
MSI-H CRC = MSI-H CRC patients that progressed to fluoropyrimidine, oxaliplatin, and irinotecan containing regimens; cited from earlier work
[2] = tested on: advanced cervical cancer, PD-L1 CPS>=1; settings: cited from earlier work
advanced NSCLC = settings: cited from earlier work
[3] = 200 mg IV every three weeks, 77 patients

In the case of `CNC(=O)c1cc(Oc2ccc(NC(=O)Nc3ccc(Cl)c(C(F)(F)F)c3)c(F)c2)ccn1` [regorafenib], the “median OS” value (metastatic CRC) is listed as 7 months and the “median PFS” value (metastatic CRC) is listed as 2 months.
For bevacizumab, the “HR for PFS” value ([1]; bevacizumab added to standard first line chemotherapy vs chemotherapy alone, 95% CI 0.54-0.82) is given as 0.67, the “HR for OS” value ([1]; bevacizumab added to standard first line chemotherapy vs chemotherapy alone, 95% CI 0.54-0.95) is given as 0.71 and the “median PFS” value ([1]; bevacizumab added to standard first line chemotherapy, vs 5.9 months chemotherapy alone) is given as 8.2 months. The “median OS” value ([1]; bevacizumab added to standard first line chemotherapy, vs 13.3 months chemotherapy alone) was 17.0 months.
In the case of nivolumab, the ORR (MSI-H CRC) is given as 28% and the “responders whose DOR lasted more than six months” value (MSI-H CRC) is given as 67%.
In the case of pembrolizumab, the ORR (MSI-H CRC) is listed as 36%, the “responders whose DOR lasted more than six months” value (MSI-H CRC) is listed as 78% and the “complete responses (CRs)” value [2, 3] is listed as 2.6%. The “partial responses (PRs)” value [2, 3] was 11.7%, the “overall response rate (ORR)” value ([2]; 200 mg IV every three weeks, 77 patients, median follow-up 11.7 months, 95% CI 7.4, 24.1) was 14.3% and the “estimated median duration of response (DOR)” value ([2]; 11 patients with a response by independent review) was “not reached”. For the same compound, the “responders with a DOR of greater than or equal to 6 months” value ([2]; 11 patients with a response) was 91%, the “5-year OS rate” value (advanced NSCLC; previously treated patients, PD-L1 expression 1 to 49%) was 12.6% and the “5-year OS rate” value (advanced NSCLC; previously treated patients, PD-L1 expression <1%) was 3.5%. The “5-year OS rate” value (advanced NSCLC; previously treated patients, PD-L1 expression >=50%) was 25%, the “5-year OS rate” value (advanced NSCLC; treatment-naive patients with PD-L1 expression >=50%) was 29.6% and the “5-year OS rate” value (advanced NSCLC; treatment-naive patients, PD-L1 <50%) was 15.7%.
In the case of trifluridine-tipiracil, the “median OS” value (metastatic CRC) is given as 7 months and the “median PFS” value (metastatic CRC) is given as 2 months.
